Assay [1] relates to cyclic AMP response element binding protein (CREB). Description: immunoblots of muscle lysates for CREB activation after PGE2 i.m. injection. Particulars: young (3 mo.) mice, PGE2 i.m., 0, 30 or 60 minutes; FIG. 2A. Format: in vivo, C57BL/6 mice. Here is the method: FIGS. 2A-2C. PGE2 treatment leads to activation of CREB in muscles and 15-PGDH inhibition leads to increased mitochondrial biogenesis and function in aged muscles. (FIG. 2A) Immunoblots of muscle lysates from young (3 mo.) C57BL/6 mice injected with PGE2 i.m. after 0, 30 or 60 minutes. (FIG. 2B) Quantification of immunoblot in (FIG. 2A) (n=3 mice per timepoint). (FIG. 2B) Representative images of intermyofibrillar (IMF) mitochondria from transmission electron micrographs (TEM) of longitudinal sections of EDL muscles of young, aged vehicle and aged SW (n=3 mice per condition; total mitochondria quantified, n=1,066 young, n=1,350 aged vehicle and n=1,371 aged SW). Different magnifications are as shown: 1,500×, 3,000× and 10,000× with […] respectively: 5 μm, 2 μm and 500 nm. (FIG. 2C) Citrate synthase activity of Quadriceps (Quad) muscles (n=13 aged vehicle and n=8 aged SW). *P<0.05, **P<0.01. ANOVA test with Fisher's LSD for multiple comparisons (FIG. 2B); unpaired t-test (FIG. 2C). Means±s.e.m.
To identify downstream signaling pathways through which 15-PGDH inhibition exerts its effects on aged muscles, we performed an unbiased transcriptomic analysis of aged muscles treated with vehicle or SW033291 (SW). […]

In assay [2] the test system is succinate dehydrogenase. The assay is described as follows: succinate dehydrogenase (SDH) staining of TA cross-sections. It counts as in vivo, mice. Particulars: SW treated aged muscle; FIG. 1F. The text has this: (§1) FIGS. 1A-1H. Boost in mitochondrial biogenesis and function is triggered by 15-PGDH inhibition in aged muscles. (FIG. 1A) Heatmap of mitochondrial genes. (FIG. 1B) Expression level of Pgc1α by qPCR (n=4 young, n=4 aged veh, n=3 aged SW033291 (SW)). (FIG. 1C) Relative quantification of mitochondrial DNA to nuclear DNA (n=4 per group). (FIG. 1D) Representative images and quantifications of intermyofibrillar (IMF) mitochondria numbers, their size, and myofibrillar width from transmission electron micrographs (TEM) of longitudinal sections of EDL muscles of young, aged vehicle and aged SW (n=3 mice per condition; total mitochondria quantified, n=1,066 young, n=1,350 aged vehicle and n=1,371 aged SW). Scale bar=2 μm. (FIG. 1E) Citrate synthase activity of Gastrocnemius muscles (n=3 young, n=4 aged vehicle and n=4 aged SW). (FIG. 1F) Representative TA cross-section stained for succinate dehydrogenase (SDH) (left). Quantification of SDH mean average intensity per fiber (n=4 mice per condition). (FIG. 1G) Representative images of mitochondrial membrane potential (TMRM staining) in isolated EDL myofibers from young, aged vehicle and SW treated mice (n=4 mice per condition; total number of fibers n=52 young, n=139 aged vehicle and n=89 aged SW). […] Quantification (right) (n=3 aged veh and SW). *P<0.05, **P<0.01, ***P<0.001, ****P<0.0001. […]

In assay [3] the test system is myofibers isolated from EDL muscles. The assay is described as follows: mitochondrial membrane potential (TMRM staining) in isolated EDL myofibers. It counts as in vivo. Conditions: myofibers from EDL muscles of SW treated aged mice compared to controls; FIG. 1G.
From the text: as §1

Assay [4] relates to citrate synthase. Description: citrate synthase activity in isolated mitochondria of aged muscles. Format: in vivo, mice. Conditions: SW-treated aged muscles compared to controls, FIGS. 1E and 2C.
From the text: as §1, with “(FIG. 1F) Representative TA cross-section stained for succinate dehydrogenase (SDH) (left).” left out, “condition).” for “condition). (FIG. 1G) Representative images of mitochondrial membrane potential (TMRM staining) in isolated EDL myofibers from young, aged vehicle and SW treated mice (n=4 mice per condition; total number of fibers n=52 young, n=139 aged vehicle and n=89 aged SW).”
(§2) FIGS. 2A-2C. […] (FIG. 2B) Quantification of immunoblot in (FIG. 2A) (n=3 mice per timepoint). (FIG. 2B) Representative images of intermyofibrillar (IMF) mitochondria from transmission electron micrographs (TEM) of longitudinal sections of EDL muscles of young, aged vehicle and aged SW (n=3 mice per condition; total mitochondria quantified, n=1,066 young, n=1,350 aged vehicle and n=1,371 aged SW). […]

The test system of assay [5] is p62. The assay is described as follows: autophagy flux, western blot of p62 upon colchicine treatment. It counts as in vivo. Conditions: muscles of aged mice treated with SW compared to controls; FIG. 1H.
From the text: as §1
For orientation: Immunoblotting shows a protein as a band on a membrane.

Assay [6] concerns aged muscles. Description: relative quantification of mitochondrial DNA to nuclear DNA in aged muscles. Format: in vivo, mice. Particulars: SW treatment of aged muscles; FIG. 1C.
From the text: as §1

For assay [7], the system named is aged muscles. Description: muscle atrophy (cross sectional area, muscle mass) in aged mice. It counts as in vivo. Conditions: aged treated with SW compared to vehicle controls. The source says:
In addition, the morphology of the mitochondria improved. The shift in IMF mitochondrial area from compact and round in young to a larger size with more disorganized morphology in aged tissues was clearly evident, in agreement with reports by others (J. P. Leduc-Gaudet et al., Mitochondrial morphology is altered in atrophied skeletal muscle of aged mice. Oncotarget 6, 17923-17937 (2015); V. Romanello, M. Sandri, Mitochondrial Quality Control and Muscle Mass Maintenance. Front Physiol 6, 422 (2015)) (FIGS. 1D and 2B).

For assay [8], the system named is peroxisome proliferator-activated receptor gamma coactivator 1-alpha (Pgc1α). Description: Pgc1α mRNA level by qPCR in aged muscles. It counts as in vivo, mice. Particulars: SW vs vehicle and young, FIG. 1B.
From the text: as §1

The test system of assay [9] is intermyofibrillar (IMF) mitochondria of EDL muscles. Description: transmission electron microscopy (TEM) of Extensor digitorum longus (EDL) muscles. Format: in vivo, mice.
From the text: FIGS. 1A-1H. Boost in mitochondrial biogenesis and function is triggered by 15-PGDH inhibition in aged muscles. (FIG. 1A) Heatmap of mitochondrial genes. (FIG. 1B) Expression level of Pgc1α by qPCR (n=4 young, n=4 aged veh, n=3 aged SW033291 (SW)). (FIG. 1C) Relative quantification of mitochondrial DNA to nuclear DNA (n=4 per group). (FIG. 1D) Representative images and quantifications of intermyofibrillar (IMF) mitochondria numbers, their size, and myofibrillar width from transmission electron micrographs (TEM) of longitudinal sections of EDL muscles of young, aged vehicle and aged SW (n=3 mice per condition; total mitochondria quantified, n=1,066 young, n=1,350 aged vehicle and n=1,371 aged SW). Scale bar=2 μm. (FIG. 1E) Citrate synthase activity of Gastrocnemius muscles (n=3 young, n=4 aged vehicle and n=4 aged SW). (FIG. 1F) Representative TA cross-section stained for succinate dehydrogenase (SDH) (left). Quantification of SDH mean average intensity per fiber (n=4 mice per condition). (FIG. 1G) Representative images of mitochondrial membrane potential (TMRM staining) in isolated EDL myofibers from young, aged vehicle and SW treated mice (n=4 mice per condition; total number of fibers n=52 young, n=139 aged vehicle and n=89 aged SW). (FIG. 1H) Immunoblots of muscle lysates from: aged vehicle and SW treated mice together with colchicine, young mice without treatment, young mice treated with colchicine and young mice fasted and treated with colchicine. Quantification (right) (n=3 aged veh and SW). *P<0.05, **P<0.01, ***P<0.001, ****P<0.0001. ANOVA test with Tukey's test (FIG. 1D) or Fisher's LSD (FIGS. 1A, 1F, 1G) for multiple comparisons; Unpaired t-test (FIGS. 1C, 1E, 1H). Means±s.e.m.
as §2

The subject of assay [10] is aged muscles. Description: unbiased transcriptomic analysis of aged muscles treated with vehicle or SW033291. Conditions: FIG. 1A. Format: in vivo, mice.
From the text: as §1

SMILES strings stand for the structures. Entries after “also recorded” stand apart in the source; their conditions may differ.

With `CCCCC[C@H](O)/C=C/[C@H]1[C@H](O)CC(=O)[C@@H]1C/C=C\CCCC(=O)O` [PGE2, Prostaglandin E2], the “activation of CREB in skeletal muscles” value in [1] is on record as “activates”.
On to `CCCC[S+]([O-])c1sc2nc(-c3cccs3)cc(-c3ccccc3)c2c1N` (stereo not shown) [SW, 2-(butylsulfinyl)-4-phenyl-6-(thiophen-2-yl)thieno[2,3-b]pyridin-3-amine], for which the succinate dehydrogenase activity entry in assay [2] is “increased; also recorded: restored to young levels”. Also, the mitochondrial membrane potential entry in [3] is “increase; also recorded: restored to young levels”. In addition, the citrate synthase activity result in assay [4] is reported as “significantly increased; also recorded: restored to young levels”. The “autophagy flux (p62 upon colchicine treatment)” value in [5] is recorded as “increased”. In [6], the “mitochondrial DNA content relative to nuclear DNA content” value is “increased”. Besides, the muscle atrophy result in assay [7] is on record as “attenuation of muscle atrophy”. The “mRNA level of Pgc1α” value in assay [8] is “restored to that seen in young muscles”. In [9] (EDL muscles of aged mice after SW treatment, FIGS. 1D and 2B), the “number of intermyofibrillar (IMF) mitochondria” value is on record as “increase”. The mitochondrial morphology entry in assay [9] (aged EDL muscles, one month of SW treatment, FIG. 1D) is reported as “restored to a compact mitochondrial morphology resembling that seen in young”. For the same compound, in assay [9] (aged treated with SW compared to vehicle controls, FIGS. 1D and 2B), the myofibril width result is listed as “increase”. Moreover, the “components of mitochondria complexes I, II, IV and V of the electron transport chain (transcriptome)” value in [10] (SW-treated aged muscles) is on record as “markedly increased”. In addition, the “change in aged muscle tissue transcriptome: mitochondrial pathways (oxidative phosphorylation, ATP synthesis)” value in assay [10] (aged muscles, SW vs vehicle) is “strong enrichment for mitochondrial pathways”.

These data come from patent publication US20240000758A1, “ELEVATION OF MITOCHONDRIAL BIOGENESIS AND FUNCTION BY INHIBITION OF PROSTAGLANDIN DEGRADING ENZYME 15-PGDH” (The Board of Trustees of the Leland Stanford Junior …, priority 2020, published 2024).
